Assays:
Abcg2a [1] = test system: T1, Abcg2a; test: cells; parameters: species or system HEK-293; CellTiter-Glo growth inhibition of transporter-transfected HEK-293 cells, luminescence; conditions: Homo sapiens, HEK293, 72 h; cells expressing zebrafish Abcg2a
T1 construct: HEK-293 HEK-293 stably expressing full-length FLAG-tagged zebrafish Abcg2a
Protocol: (§1) Trypsinized cells were plated at 5,000 cells/well in white opaque 96-well plates and allowed to adhere overnight. Drugs were then added, with each concentration tested in triplicate, and cells were incubated for 72 h. Cell growth was assessed using the CellTiter-Glo (Promega, Madison, WI) reagent, according to the manufacturer’s instructions. Luminescence was measured on a Tecan Infinite M200 Pro microplate reader (Tecan Group, Morrisville, NC, RRID:SCR_019033). […] Relative resistance (RR) values are the ratio of the GI50 values of the transporter transfected versus the empty vector-transfected HEK-293 cells. HEK-293 cells (ATCC, Manassas, VA, RRID:CVCL_0045) were transfected with empty pcDNA3.1 vector or with vector containing full-length abcg2a (NM_001042775), abcg2b (NM_001039066), abcg2c (XM_005156523) or abcg2d (NM_001042772) (all from Genscript, Piscataway, NJ), flanked by a C-terminal FLAG tag sequence. The R-5 cell line was generated as previously described from HEK-293 cells transfected with full-length ABCG2 [18]. Transfected cells were cultured at 37 °C and at 5% CO2 in EMEM (Quality Biological, Gaithersburg, MD) supplemented with 10% fetal calf serum, penicillin/streptomycin (Quality Biological) and 2 mg/ml G418 (Mediatech, Manassas, VA). To determine if zebrafish Abcg2a-d were able to confer resistance to known cytotoxic substrates of ABCG2, cytotoxicity assays were performed and quantified by the drug concentration that produces 50% cell growth inhibition (GI50). Among the zebrafish Abcg2 homologs, Abcg2a conferred the highest level of resistance to MLN7243 (a ubiquitin activating enzyme inhibitor), MLN4924 (NEDD8 activating enzyme inhibitor), and CUDC-101 (histone deacetylase and receptor tyrosine kinase inhibitor) (Fig. 2, Additional file 5: Table S1). Abcg2d conferred the least resistance to THZ 531 (CDK12/13 inhibitor), CUDC-101, and gedatolisib (an inhibitor of phosphatidylinositol-3-kinase (PI3K) and mammalian target of rapamycin (mTOR)). […] Abcg2b and Abcg2c often conferred similar levels of resistance to the same substates, as evidenced by results with MLN7243, MLN4924, THZ 531, CUDC-101 and gedatolisib.

ABCG2 [2] = test system: T2, ABCG2; test: cells; parameters: species or system HEK-293; CellTiter-Glo growth inhibition of transporter-transfected HEK-293 cells, luminescence; conditions: HEK293, 72 h; cells expressing human ABCG2
T2 construct: HEK-293 R-5 HEK-293 stably expressing full-length human ABCG2 (R-5)
Protocol: as §1

Abcg2d = test system: T3, Abcg2d; test: cells; parameters: species or system HEK-293; CellTiter-Glo growth inhibition of transporter-transfected HEK-293 cells, luminescence; conditions: Homo sapiens, HEK293, 72 h; cells expressing zebrafish Abcg2d
T3 construct: HEK-293 HEK-293 stably expressing full-length FLAG-tagged zebrafish Abcg2d
Protocol: as §1

Abcg2c [3] = test system: T4, Abcg2c; test: cells; parameters: species or system HEK-293; CellTiter-Glo growth inhibition of transporter-transfected HEK-293 cells, luminescence; conditions: Homo sapiens, HEK293, 72 h; cells expressing zebrafish Abcg2c
T4 construct: HEK-293 HEK-293 stably expressing full-length FLAG-tagged zebrafish Abcg2c
Protocol: as §1

Abcg2b [4] = test system: T5, Abcg2b; test: cells; parameters: species or system HEK-293; CellTiter-Glo growth inhibition of transporter-transfected HEK-293 cells, luminescence; conditions: Homo sapiens, HEK293, 72 h; cells expressing zebrafish Abcg2b
T5 construct: HEK-293 HEK-293 stably expressing full-length FLAG-tagged zebrafish Abcg2b
Protocol: as §1

Empty vector = test system: T6, Empty vector; test: cells; parameters: species or system HEK-293; CellTiter-Glo growth inhibition of transporter-transfected HEK-293 cells, luminescence; conditions: Homo sapiens, HEK293, 72 h
T6 construct: HEK-293 HEK-293 stably transfected with empty pcDNA3.1
Protocol: as §1

Abcg2a [5] = molecular target: T7, Abcg2a (Danio rerio, UniProt Q2Q447); test: flow cytometry efflux assay; assay type: cell-based; conditions: 5 µM substrate, 37 °C, with and without inhibitor
T7 construct: homodimer
T7 sequence (Q2Q447 1-643): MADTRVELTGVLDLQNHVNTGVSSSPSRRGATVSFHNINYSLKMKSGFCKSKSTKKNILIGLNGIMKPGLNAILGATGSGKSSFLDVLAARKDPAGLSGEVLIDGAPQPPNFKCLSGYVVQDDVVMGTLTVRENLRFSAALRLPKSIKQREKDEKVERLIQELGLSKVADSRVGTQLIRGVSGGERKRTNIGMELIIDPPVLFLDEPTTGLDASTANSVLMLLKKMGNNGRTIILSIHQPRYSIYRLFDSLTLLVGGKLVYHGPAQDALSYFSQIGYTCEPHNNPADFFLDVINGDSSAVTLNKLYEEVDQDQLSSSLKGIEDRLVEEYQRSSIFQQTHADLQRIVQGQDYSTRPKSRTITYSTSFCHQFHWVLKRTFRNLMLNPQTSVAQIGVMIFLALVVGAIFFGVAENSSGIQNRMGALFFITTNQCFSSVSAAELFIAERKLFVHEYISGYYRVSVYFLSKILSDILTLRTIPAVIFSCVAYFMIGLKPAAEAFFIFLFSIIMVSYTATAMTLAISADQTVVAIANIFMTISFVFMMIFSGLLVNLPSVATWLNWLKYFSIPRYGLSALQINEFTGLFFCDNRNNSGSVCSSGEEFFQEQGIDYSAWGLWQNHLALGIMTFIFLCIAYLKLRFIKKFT

ABCG2 [6] = molecular target: T8, ABCG2 (Homo sapiens, UniProt Q9UNQ0); test: flow cytometry efflux assay; assay type: cell-based; conditions: 5 µM substrate, 37 °C, with and without inhibitor
T8 construct: homodimer
T8 sequence (Q9UNQ0 1-655): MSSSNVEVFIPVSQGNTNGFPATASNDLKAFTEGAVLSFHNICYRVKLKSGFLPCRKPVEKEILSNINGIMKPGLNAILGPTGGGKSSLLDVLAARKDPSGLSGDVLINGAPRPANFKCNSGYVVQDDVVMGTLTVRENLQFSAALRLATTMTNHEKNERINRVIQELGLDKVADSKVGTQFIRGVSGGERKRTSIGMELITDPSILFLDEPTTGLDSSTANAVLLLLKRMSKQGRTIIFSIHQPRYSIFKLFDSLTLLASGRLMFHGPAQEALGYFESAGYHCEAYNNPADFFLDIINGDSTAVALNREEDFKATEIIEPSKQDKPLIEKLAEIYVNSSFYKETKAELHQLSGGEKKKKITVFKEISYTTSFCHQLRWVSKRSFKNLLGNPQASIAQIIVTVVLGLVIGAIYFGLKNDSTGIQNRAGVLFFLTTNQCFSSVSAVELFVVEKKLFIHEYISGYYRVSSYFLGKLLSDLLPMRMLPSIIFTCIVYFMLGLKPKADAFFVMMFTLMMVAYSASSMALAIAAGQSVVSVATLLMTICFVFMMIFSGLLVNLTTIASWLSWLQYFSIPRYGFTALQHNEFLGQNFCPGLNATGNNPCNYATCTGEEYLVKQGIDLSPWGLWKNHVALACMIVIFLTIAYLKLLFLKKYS

Abcg2c [7] = molecular target: T9, Abcg2c (Danio rerio, UniProt A0A8M2B3F2); test: flow cytometry efflux assay; assay type: cell-based; conditions: 5 µM substrate, 37 °C, with and without inhibitor
T9 construct: homodimer
T9 sequence (A0A8M2B3F2 1-640): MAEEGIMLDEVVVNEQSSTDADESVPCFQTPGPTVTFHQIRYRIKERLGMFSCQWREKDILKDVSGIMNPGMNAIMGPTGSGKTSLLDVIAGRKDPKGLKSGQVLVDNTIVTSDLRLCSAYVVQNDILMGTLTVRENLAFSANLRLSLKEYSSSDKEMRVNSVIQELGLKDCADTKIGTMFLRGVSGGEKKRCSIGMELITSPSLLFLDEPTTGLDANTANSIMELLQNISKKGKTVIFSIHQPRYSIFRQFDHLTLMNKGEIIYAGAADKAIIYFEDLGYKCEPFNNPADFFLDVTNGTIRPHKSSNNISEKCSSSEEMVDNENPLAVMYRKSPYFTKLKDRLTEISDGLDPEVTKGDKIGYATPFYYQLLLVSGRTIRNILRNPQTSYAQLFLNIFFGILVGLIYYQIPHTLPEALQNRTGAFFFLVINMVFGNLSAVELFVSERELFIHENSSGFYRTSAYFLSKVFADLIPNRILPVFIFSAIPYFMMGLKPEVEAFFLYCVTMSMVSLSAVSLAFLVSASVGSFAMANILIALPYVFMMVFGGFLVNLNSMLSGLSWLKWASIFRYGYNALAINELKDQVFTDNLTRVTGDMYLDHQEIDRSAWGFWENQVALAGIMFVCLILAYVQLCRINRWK

Abcg2b [8] = molecular target: T10, Abcg2b (Danio rerio, UniProt Q2Q446); test: flow cytometry efflux assay; assay type: cell-based; conditions: 5 µM substrate, 37 °C, with and without inhibitor
T10 construct: homodimer
T10 sequence (Q2Q446 1-618): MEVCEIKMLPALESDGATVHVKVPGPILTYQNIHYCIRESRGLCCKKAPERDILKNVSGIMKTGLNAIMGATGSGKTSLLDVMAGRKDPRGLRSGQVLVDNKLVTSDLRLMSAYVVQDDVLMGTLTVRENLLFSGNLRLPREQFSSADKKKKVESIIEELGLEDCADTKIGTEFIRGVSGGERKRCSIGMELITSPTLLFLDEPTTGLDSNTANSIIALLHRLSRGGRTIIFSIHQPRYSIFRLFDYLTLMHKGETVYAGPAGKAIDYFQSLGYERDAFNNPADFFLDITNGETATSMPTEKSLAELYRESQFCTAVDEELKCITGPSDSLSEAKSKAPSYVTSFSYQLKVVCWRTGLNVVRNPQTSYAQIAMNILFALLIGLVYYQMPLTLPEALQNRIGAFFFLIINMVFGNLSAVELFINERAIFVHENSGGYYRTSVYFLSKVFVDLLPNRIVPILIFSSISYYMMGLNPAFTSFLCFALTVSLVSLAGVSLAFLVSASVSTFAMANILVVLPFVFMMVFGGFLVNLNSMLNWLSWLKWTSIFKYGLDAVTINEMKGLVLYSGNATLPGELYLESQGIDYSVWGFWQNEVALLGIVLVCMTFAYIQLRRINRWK

Row | Compound | GI50 (Abcg2a [1]) | GI50 (ABCG2 [2]) | GI50 (Abcg2d) | GI50 (Abcg2c [3]) | GI50 (Abcg2b [4]) | GI50 (Empty vector) | flow cytometry efflux assay (Abcg2a [5]) | flow cytometry efflux assay (ABCG2 [6]) | flow cytometry efflux assay (Abcg2c [7]) | flow cytometry efflux assay (Abcg2b [8])
1 | C#Cc1cccc(Nc2ncnc3cc(OC)c(OCCCCCCC(=O)NO)cc23)c1 [CUDC-101] | 5420 ± 1400 nM | 11300 ± 2000 nM | 1040 ± 260 nM | 1690 ± 290 nM | 2090 ± 190 nM | 780 ± 100 nM |  |  |  | 
2 | CN(C)C1CCN(C(=O)c2ccc(NC(=O)Nc3ccc(-c4nc(N5CCOCC5)nc(N5CCOCC5)n4)cc3)cc2)CC1 [Gedatolicib, gedatolisib] | 1390 ± 190 nM | 3840 ± 1500 nM | 820 ± 500 nM | 3260 ± 490 nM | 4060 ± 1500 nM | 200 ± 10 nM |  |  |  | 
3 | NS(=O)(=O)OC[C@@H]1C[C@@H](n2ccc3c(N[C@H]4CCc5ccccc54)ncnc32)C[C@@H]1O [MLN 4924] | 2440 ± 170 nM | 7320 ± 1700 nM | 353 ± 190 nM | 487 ± 40 nM | 520 ± 52 nM | 420 ± 90 nM |  |  |  | 
4 | NS(=O)(=O)OC[C@H]1C[C@@H](Nc2ccnc3cc(-c4cccc(SC(F)(F)F)c4)nn23)[C@H](O)[C@@H]1O [MLN 7243] |  | 15400 ± 220 nM | 179 ± 23 nM | 200 ± 20 nM | 151 ± 51 nM | 69 ± 5 nM |  |  |  | 
5 | Cc1nc(Nc2[nH]nc3c2CN(C(=O)N[C@H](CN(C)C)c2ccccc2)C3(C)C)c2sccc2n1 [PF-3758309] | 1260 ± 530 nM | 2360 ± 540 nM | 1540 ± 650 nM | 1970 ± 710 nM | 413 ± 150 nM | 68 ± 30 nM |  |  |  | 
6 | CN(C)C/C=C/C(=O)Nc1ccc(C(=O)N2CCC[C@@H](Nc3ncc(Cl)c(-c4c[nH]c5ccccc45)n3)C2)cc1 [THZ 531] | 18300 ± 3600 nM | 65900 ± 3700 nM | 3990 ± 240 nM | 11400 ± 1000 nM | 10500 nM | 1290 ± 140 nM |  |  |  | 
7 | O=C1c2c(O)ccc(O)c2C(=O)c2c(NCCNCCO)ccc(NCCNCCO)c21 [mitoxantrone] |  |  |  |  |  |  | rightward inhibited peak shift for Abcg2a with mitoxantrone |  |  | 
8 | C=Cc1c(C)c2cc3nc(c4c5[nH]c(cc6nc(cc1[nH]2)C(C)=C6CC)c(C)c5C(=O)[C@@H]4C(=O)OC)[C@@H](CCC(=O)O)[C@@H]3C [pheophorbide a] |  |  |  |  |  |  | to a greater extent with pheophorbide a, indicating Abcg2a can efflux both substrates | ABCG2-expressing cells exhibit an increase in intracellular fluorescence | Pheophorbide a also appears to be a substrate for Abcg2b and Abcg2c | Pheophorbide a also appears to be a substrate for Abcg2b and Abcg2c

— paper PMC10941402, “Abcg2a is the functional homolog of human ABCG2 expressed at the zebrafish blood–brain barrier” (Fluids and Barriers of the CNS, 2024)
